The values below come from patent US20090023718A1 (Aton Pharma, Inc., priority 2003, published 2009).

T1 sequence (Q13547 whole entry): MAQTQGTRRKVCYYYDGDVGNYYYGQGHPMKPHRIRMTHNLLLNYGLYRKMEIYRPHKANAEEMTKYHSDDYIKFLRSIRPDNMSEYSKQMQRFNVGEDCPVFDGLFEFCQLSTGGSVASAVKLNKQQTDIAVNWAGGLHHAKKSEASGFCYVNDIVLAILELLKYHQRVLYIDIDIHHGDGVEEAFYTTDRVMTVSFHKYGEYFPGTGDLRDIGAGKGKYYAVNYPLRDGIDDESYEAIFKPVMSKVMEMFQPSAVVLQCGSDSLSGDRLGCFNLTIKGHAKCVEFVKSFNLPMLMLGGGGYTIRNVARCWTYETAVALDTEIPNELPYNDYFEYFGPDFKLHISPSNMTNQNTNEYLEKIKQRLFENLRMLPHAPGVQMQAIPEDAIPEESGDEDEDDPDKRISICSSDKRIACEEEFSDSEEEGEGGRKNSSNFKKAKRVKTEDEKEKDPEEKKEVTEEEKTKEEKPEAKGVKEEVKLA

One experiment concerns the target T1, histone deacetylase, subtype 1 (HDAC1) (Homo sapiens, UniProt Q13547).
T1 construct: Flag; made in house
As to the kind of experiment: HDAC1-Flag assay (in vitro fluorescent deacetylation assay). In kind it is biochemical. To be noted: Table 1, compounds of formula II; epitope-tagged human HDAC1 complex, substrate at Km; mean ± spread (N); read-out: HDAC Inhibition (IC50) nm. On the procedure:
Novel compounds were tested for their ability to inhibit histone deacetylase, subtype 1 (HDAC1) using an in vitro deacetylation assay. The enzyme source for this assay was an epitope-tagged human HDAC1 complex immuno-purified from stably expressing mammalian cells. The substrate consisted of a commercial product containing an acetylated lysine side chain (BIOMOL Research Laboratories, Inc., Plymouth Meeting, Pa.). Upon deacetylation of the substrate by incubation with the purified HDAC1 complex, a fluorophore is produced that is directly proportional to the level of deacetylation.
Consider `O=C(CCCCCC(=O)N(CC(=O)Nc1ccc2[nH]ncc2c1)CC(=O)Nc1ccc2[nH]ncc2c1)NO` [Compound 1, Heptanedioic acid bis-[(1H-indazol-5-ylcarbamoyl)-methyl]-amide hydroxyamide], for which the IC50 came to 1 nM. Take `O=C(CCCCCC(=O)N(CC(=O)Nc1ccc2ncccc2c1)CC(=O)Nc1ccc2ncccc2c1)NO` [Compound 2, Heptanedioic acid bis-(quinolin-ylcarbamoylmethyl)-amide hydroxyamide]: the IC50 came out at 5.5 ± 0.7 nM. Still for that read-out and setting: under `O=C(CCCCCC(=O)N(CC(=O)Nc1ccc2c(c1)OCCO2)CC(=O)Nc1ccc2c(c1)OCCO2)NO` [Compound 5, Heptanedioic acid bis-[(2,3-dihydro-benzo[1,4]dioxin-6-ylcarbamoyl)-methyl]-amide hydroxyamide] stands 19 nM; under `O=C(CCCCCC(=O)N(CC(=O)NCc1ccccc1)CC(=O)Nc1ccccc1)NO` [Compound 10, Heptanedioic acid (benzylcarbamoyl-methyl)-phenylcarbamoylmethyl-amide hydroxyamide], 27.5 ± 10.6 nM. Still for that read-out and setting: under `O=C(CCCCCC(=O)N(CC(=O)NCCc1ccccc1)CC(=O)NCCc1ccccc1)NO` [Compound 12, Heptanedioic acid bis-(phenethylcarbamoyl-methyl)-amide hydroxyamide] stands 58 ± 9.8 nM; under `O=C(CCCCCC(=O)N(CC(=O)NCc1ccccc1)CC(=O)NCc1ccccc1)NO` [Compound 13, Heptanedioic acid bis-(benzylcarbamoyl-methyl)-amide hydroxyamide], 61.5 ± 6.3 nM; under `O=C(CCCCCC(=O)N(CC(=O)NC1CCCCC1)CC(=O)NC1CCCCC1)NO` [Compound 14, Heptanedioic acid bis-cyclohexylcarbamoylmethyl-amide hydroxyamide], 76 ± 14.1 nM.

As for `O=C(CCCCCC(=O)N(CC(=O)Nc1ccc(OCc2ccccc2)cc1)CC(=O)Nc1ccc(OCc2ccccc2)cc1)NO` [Compound 16, Heptanedioic acid bis-[(4-benzyloxy-phenylcarbamoyl)-methyl]-amide hydroxyamide], the IC50 was 91.5 ± 58.6 nM. The same measure, in the same setting: as for `O=C(CCCCCCC(=O)N(CC(=O)Nc1ccc2ncccc2c1)CC(=O)Nc1ccc2ncccc2c1)NO` [Compound 17, Octanedioic acid bis-(quinolin-6-ylcarbamoylmethyl)-amide hydroxyamide], the figure is 102 ± 33.2 nM.

`O=C(CCCCCC(=O)N(CC(=O)Nc1cccc(OCc2ccccc2)c1)CC(=O)Nc1cccc(OCc2ccccc2)c1)NO` [Compound 18, Heptanedioic acid bis-[(3-benzyloxy-phenylcarbamoyl)-methyl]-amide hydroxyamide]: the IC50 worked out at 159 ± 159 nM.

As to `O=C(CCCCCCC(=O)N(CC(=O)NCCc1ccccc1)CC(=O)NCCc1ccccc1)NO` [Compound 19, Octanedioic acid bis-(phenethylcarbamoyl-methyl)-amide hydroxyamide], the IC50 was found to be 231 ± 65.5 nM. Still for that read-out and setting: under `O=C(CCCCCCC(=O)N(CC(=O)NCc1ccccc1)CC(=O)NCc1ccccc1)NO` [Compound 20, Octanedioic acid bis-(benzylcarbamoyl-methyl)-amide hydroxyamide] stands 247 ± 99.9 nM; under `O=C(CCCCCCC(=O)N(CC(=O)NC1CCCCC1)CC(=O)NC1CCCCC1)NO` [Compound 21, Octanedioic acid bis-cyclohexylcarbamoylmethyl-amide hydroxyamide], 539 ± 97 nM; under `O=C(CCCCCCC(=O)N(CC(=O)Nc1ccc(OCc2ccccc2)cc1)CC(=O)Nc1ccc(OCc2ccccc2)cc1)NO` [Compound 22, Octanedioic acid bis-[(4-benzyloxy-phenylcarbamoyl)-methyl]-amide hydroxyamide], 848 ± 481 nM. On the same count and under the same terms, as for `O=C(CCCCCCC(=O)N(CC(=O)Nc1cccc(OCc2ccccc2)c1)CC(=O)Nc1cccc(OCc2ccccc2)c1)NO` [Compound 23, Octanedioic acid bis-[(3-benzyloxy-phenylcarbamoyl)-methyl]-amide hydroxyamide], the figure is 861 ± 403 nM; as for `O=C(CCCCCC(=O)N(CC(=O)Nc1ccccc1Oc1ccccc1)CC(=O)Nc1ccccc1Oc1ccccc1)NO` [Compound 26, Heptanedioic acid bis-[(2-phenoxy-phenylcarbamoyl)-methyl]-amide hydroxyamide], 449 ± 40.3 nM; as for `O=C(CCCCCC(=O)N(CC(=O)Nc1ccc(N2CCOCC2)cc1)CC(=O)Nc1ccc(N2CCOCC2)cc1)NO` [Compound 27, Heptanedioic acid bis-[(4-morpholin-4-yl-phenylcarbamoyl)-methyl]-amide hydroxyamide], 40 ± 8.4 nM. The same measure, in the same setting: under `Cc1ccc(S(=O)(=O)Nc2ccc(NC(=O)CN(CC(=O)Nc3ccc(NS(=O)(=O)c4ccc(C)cc4)cc3)C(=O)CCCCCC(=O)NO)cc2)cc1` [Compound 28, Heptanedioic acid bis{[4-(toluene-4-sulfonylamino)-phenylcarbamoyl]-methyl}-amide hydroxyamide] stands 33 ± 12.7 nM. Take `O=C(CCCCCC(=O)N(CC(=O)Nc1cccc(Oc2ccccc2)c1)CC(=O)Nc1cccc(Oc2ccccc2)c1)NO` [Compound 30, Heptanedioic acid bis-[(3-phenoxy-phenylcarbamoyl)-methyl]-amide hydroxyamide]: the IC50 was found to be 137 ± 18.3 nM. Same read-out and setting: under `O=C(CCCCCC(=O)N(CC(=O)Nc1ccc2c(c1)Cc1ccccc1-2)CC(=O)Nc1ccc2c(c1)Cc1ccccc1-2)NO` [Compound 31, Heptanedioic acid bis-[(9H-fluoren-2-ylcarbamoyl)-methyl]-amide hydroxyamide] stands 59 ± 18.3 nM; under `CC(C)(C)c1ccc(NC(=O)CN(CC(=O)Nc2ccc(C(C)(C)C)cc2)C(=O)CCCCCC(=O)NO)cc1` [Compound 32], 152 ± 48.7 nM; under `O=C(CCCCCC(=O)N(CC(=O)NCCc1c[nH]c2ccccc12)CC(=O)NCCc1c[nH]c2ccccc12)NO` [Compound 33, Heptanedioic acid bis-{[2-(1H-indol-3-yl)-ethylcarbamoyl]-methyl}-amide hydroxyamide], 39.5 ± 37.4 nM. On the same count and under the same terms, under `Cn1c(NC(=O)CN(CC(=O)Nc2nc3ccccc3n2C)C(=O)CCCCCC(=O)NO)nc2ccccc21` [Compound 38, Heptanedioic acid bis-[(1-methyl-1H-benzoimidazol-2-ylcarbamoyl)-methyl]-amide hydroxyamide] stands 84 ± 8.4 nM.

Still in this experiment, the particulars now being: Table 2, compounds of formula III; epitope-tagged human HDAC1 complex, substrate at Km; mean ± spread (N); read-out: HDAC Inhibition (IC50) nm.
For “6-{Bis-[2-(3,4-dihydro-1H-isoquinolin-2-yl)-2-oxo-ethyl]-amino}-hexanoic acid hydroxyamide [Compound 46]”, the IC50 was determined as 153 ± 29.6 nM. The same measure, in the same setting: under `O=C(CCCCCN(CC(=O)NCCc1ccccc1)CC(=O)NCCc1ccccc1)NO` [Compound 42, 6-[Bis-(phenethylcarbamoyl-methyl)-amino]-hexanoic acid hydroxyamide] stands 55.5 ± 0.7 nM; under `O=C(CCCCCCCN(CC(=O)Nc1ccccc1)CC(=O)Nc1ccccc1)NO` [Compound 43, 8-(Bis-phenylcarbamoylmethyl-amino)-octanoic acid hydroxyamide], 86.5 ± 26.1 nM; under `O=C(CCCCN(CC(=O)Nc1ccccc1)CC(=O)Nc1ccccc1)NO` [Compound 44, 5-(Bis-phenylcarbamoylmethyl-amino)-pentanoic acid hydroxyamide], 133 ± 59.3 nM.

The same experiment, now with this note: Table 3, compounds of formula IV; epitope-tagged human HDAC1 complex, substrate at Km; mean ± spread (N); read-out: HDAC Inhibition (IC50) nm.
Regarding “8-[4-(4-Chloro-phenyl)-piperazin-1-yl]-8-oxo-octanoic acid hydroxyamide [Compound 78]”, the IC50 was found to be 36.5 ± 4.9 nM.

A word on the IC50: it is the concentration needed to halve the response being measured.
